Source: PMC8253220, “Molecular design, synthesis and in vitro biological evaluation of thienopyrimidine–hydroxamic acids as chimeric kinase HDAC inhibitors: a challenging approach to combat cancer” (Journal of Enzyme Inhibition and Medicinal Chemistry, 2021)
“And” between values parts separate entries of the source, which are not always exact repeats. Equal values may be shown once.

Key:
EGFR = EGFR (Homo sapiens, UniProt P00533); experiment: In vitro EGFR tyrosine kinase inhibitory assay (Z'-LYTE, SelectScreen); type: biochemical; conditions: for inhibition at 10 µM: 10 µM single dose
Method: The target compounds were evaluated for their in vitro inhibitory activities against EGFR, VEGFR-2, and HDAC6. The EGFR and VEGFR-2 inhibitory assays were performed at Thermo Fischer Scientific, Madison, WI, USA (SelectScreenServices@thermofisher.com). The HDAC inhibitory assays were performed at BPS Bioscience, San Diego, CA, USA (www.bpsbioscience.com). Initially, all of the synthesised target compounds were evaluated for their percent inhibitory activity against EGFR, VEGFR-2, and HDACs at 10 µM single dose concentration, in which their mean percent inhibition is summarised in (Figure 5, Tables 1 and [2]). Representative compounds were evaluated for their percent inhibitory activity against EGFR and VEGFR-2 at 6 different concentrations (0.1 nM, 1 nM, 10 nM, 100 nM, 1 µM, 10 µM) to subsequently calculate their IC50 values (Table 3). Additionally, all of the synthesised target compounds were submitted to the National Cancer Institute “NCI” Bethesda, Maryland, USA (www.dtp.nci.nih.gov), to evaluate theirs in vitro antiproliferative activities against NCI 60- cancer cell line panel.
In vitro enzyme inhibition determination for the synthesised compounds was carried out in Thermo Fischer Scientific, Madison, WI, USA (SelectScreenServices@thermofisher.com). The EGFR and VEGFR-2 tyrosine kinase % inhibitory activity at a single-dose concentration of 10 µM was performed initially then representative compounds were evaluated at single-dose concentrations of (0.1 nM, 1 nM, 10 nM, 100 nM, 1 µM) using ZYLTE technology. A fluorescence-based, coupled-enzyme format is employed in the biochemical assay and depends on the sensitivity of proteolytic cleavage to non-phosphorylated and phosphorylated peptides. Then IC50 values for selected compounds were determined by GraphPad Prism at Misr international university.

Hela nuclear extracts = experiment: Hela nuclear extract HDAC inhibitor assay (BPS Bioscience); type: biochemical; conditions: 10 µM
Method: The purpose of the study is to determine the effects of twenty compounds from Misr International University on the enzymatic activities of hela nuclear extracts using an in vitro […]
7a Solution 10mM DMSO 10 10 % DMSO in
7b Solution 10mM DMSO 10 10 % DMSO in
7d Solution 10mM DMSO 10 10 % DMSO in
2.3 Experimental Conditions
2.3.1 Enzymes and Substrates
Assay Catalog # Substrate
Hela Nuclear Exctract 50053 10 µM HDAC Substrate 3
For the hela nuclear extracts, hela cells were grown to 90 % confluency. Hela nuclear extracts were prepared from the Nuclear Extraction Kit from abcam (Catalog # ab113474). The final total protein concentration was calculated to be 2.4 µg/µl. From this, the hela nuclear extracts was diluted 20-fold in HDAC assay buffer and 5 µl of the dilution was added to a 50 µl reaction.
The compounds are dissolved in DMSO. A series of dilutions of the compounds were prepared with 10% DMSO in HDAC assay buffer and 5 µl of the dilution was added to a 50 µl reaction so that the final concentration of DMSO is 1 % in all of […]
The enzymatic reactions for the hela nuclear extract were conducted in duplicate at 37 °C for 60 minutes in a 50 µl mixture containing HDAC assay buffer, 5 µg BSA, an HDAC substrate (see 2.3.1), hela nuclear extract, and a test compound (see 2.2).
After enzymatic reactions, 50μl of 2 x HDAC Developer was added to each well for the hela nuclear extract and the plate was incubated at room temperature for an additional 15 […]
Fluorescence intensity was measured at an excitation of 360 nm and an emission of 460 nm using a Tecan Infinite M1000 microplate reader.
Hela nuclear extract activity assays were performed in duplicates at each concentration.
The fluorescent intensity data were analyzed using the computer software, Graphpad Prism. In the absence of the compound, the fluorescent intensity (Ft) in each data set was defined as 100% activity. In the absence of hela nuclear extract, the fluorescent intensity (Fb) in each data set was defined as 0% activity. The percent activity in the presence of each compound was calculated according to the following equation: %activity = (F-Fb)/(Ft-Fb), where F= the fluorescent intensity in the presence of the compound.
The values of percentage activity were plotted on a bar graph.

786-0 = experiment: NCI one-dose screen; type: cell-based, human; conditions: Renal 786-0, 10 µM single dose
Method: (§1) All of the synthesised structures were selected and submitted to NCI based on computer modelling techniques and the degree of diversity of structures for the evaluation of their antiproliferative activity. The 20 synthesised compounds were selected with their respective NCI codes [NCS D-820157- NCS D-820176] for the inhibition percent assay at an initial single dose of 10 μM on the full NCI 60 cell panel, where the mean graph of the percent growth for all compounds on the full NCI cell panel is evaluated, compared to the untreated control cells (Supplementary Material). In vitro cell line inhibition % of all synthesised compounds is represented in (Table 1 of Supplementary Material).
(§2) All of the synthesised compounds (20) were submitted to NCI and selected for in vitro anticancer assay against a panel of 60 cancer cell lines. The methodology of assay and calculations is as reported.

CCRF-CEM = experiment: NCI one-dose screen; type: cell-based, human; conditions: Leukemia CCRF-CEM, 10 µM single dose
Method: as §1, §2

EKVX = experiment: NCI one-dose screen; type: cell-based, human; conditions: NSCLC EKVX, 10 µM single dose
Method: as §1, §2

HCT-15 = experiment: NCI one-dose screen; type: cell-based, human; conditions: Colon HCT-15, 10 µM single dose
Method: as §1, §2

M14 = experiment: NCI one-dose screen; type: cell-based, human; conditions: Melanoma M14, 10 µM single dose
Method: as §1, §2

NCI/ADR-RES = experiment: NCI one-dose screen; type: cell-based, human; conditions: Ovarian NCI/ADR-RES, 10 µM single dose
Method: as §1, §2

OVCAR-4 = experiment: NCI one-dose screen; type: cell-based, human; conditions: Ovarian OVCAR-4, 10 µM single dose
Method: as §1, §2

SK-MEL-5 = experiment: NCI one-dose screen; type: cell-based, human; conditions: Melanoma SK-MEL-5, 10 µM single dose
Method: as §1, §2

TK-10 = experiment: NCI one-dose screen; type: cell-based, human; conditions: Renal TK-10, 10 µM single dose
Method: as §1, §2

UACC-62 = experiment: NCI one-dose screen; type: cell-based, human; conditions: Melanoma UACC-62, 10 µM single dose
Method: as §1, §2

full NCI 60 cell panel = experiment: NCI one-dose screen, whole panel statistics; type: cell-based, human; conditions: 1.00E-5 Molar; for Mean Growth Percent: mean over panel
Method: as §1, §2

EGFR, sequence (P00533 25-1210): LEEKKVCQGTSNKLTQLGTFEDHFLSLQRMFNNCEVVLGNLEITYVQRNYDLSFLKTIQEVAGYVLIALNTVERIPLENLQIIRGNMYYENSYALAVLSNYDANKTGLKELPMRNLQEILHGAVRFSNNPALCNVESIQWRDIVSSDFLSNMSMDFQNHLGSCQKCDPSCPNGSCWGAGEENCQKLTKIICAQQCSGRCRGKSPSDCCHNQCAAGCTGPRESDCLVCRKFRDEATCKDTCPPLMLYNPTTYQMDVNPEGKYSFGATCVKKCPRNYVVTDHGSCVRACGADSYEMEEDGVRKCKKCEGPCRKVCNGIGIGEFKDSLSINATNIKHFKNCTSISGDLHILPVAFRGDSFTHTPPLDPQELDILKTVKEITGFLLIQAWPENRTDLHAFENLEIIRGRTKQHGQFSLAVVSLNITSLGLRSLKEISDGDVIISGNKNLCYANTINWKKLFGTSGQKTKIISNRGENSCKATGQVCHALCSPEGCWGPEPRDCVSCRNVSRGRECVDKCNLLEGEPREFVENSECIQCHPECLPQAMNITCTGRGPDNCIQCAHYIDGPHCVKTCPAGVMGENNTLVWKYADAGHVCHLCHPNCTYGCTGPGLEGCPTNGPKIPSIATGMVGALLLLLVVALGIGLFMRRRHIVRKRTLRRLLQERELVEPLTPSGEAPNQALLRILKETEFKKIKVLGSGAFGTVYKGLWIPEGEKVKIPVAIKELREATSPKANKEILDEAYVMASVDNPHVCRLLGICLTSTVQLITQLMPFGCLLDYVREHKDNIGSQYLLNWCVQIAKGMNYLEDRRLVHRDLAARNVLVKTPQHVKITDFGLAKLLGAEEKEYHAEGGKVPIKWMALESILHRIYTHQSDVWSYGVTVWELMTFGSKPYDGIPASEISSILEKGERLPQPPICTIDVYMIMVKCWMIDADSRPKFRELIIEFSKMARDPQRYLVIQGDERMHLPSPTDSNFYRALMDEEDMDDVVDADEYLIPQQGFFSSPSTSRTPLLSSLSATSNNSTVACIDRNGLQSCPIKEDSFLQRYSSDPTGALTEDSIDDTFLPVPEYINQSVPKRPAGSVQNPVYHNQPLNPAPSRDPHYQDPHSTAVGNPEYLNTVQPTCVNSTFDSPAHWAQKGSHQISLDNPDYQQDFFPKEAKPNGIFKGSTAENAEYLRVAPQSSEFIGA

COc1cccc(NC(=O)Nc2ccc(Nc3ncnc4sc(C(=O)NCCC(=O)NO)c(C)c34)cc2)c1 [Compound 11b, 1–(4-(6-((3-(hydroxyamino)-3-oxopropyl)carbamoyl)-5-methylthieno[2,3-d]pyrimidin-4-ylamino)phenyl)-3–(3-methoxyphenyl)urea]
inhibition at 10 µM (EGFR): 5%
% Inhibition Hela Nuclear Extracts (Hela nuclear extracts): 4%
Growth Percent (786-0): 101.3% and 101.34%
Growth Percent (CCRF-CEM): 105.0% and 105.08%
Growth Percent (EKVX): 90.7% and 90.77%
Growth Percent (HCT-15): 99.0% and 99.06%
Growth Percent (M14): 92.9% and 92.95%
Growth Percent (NCI/ADR-RES): 102.4% and 102.42%
Growth Percent (OVCAR-4): 91.0% and 91.01%
Growth Percent (SK-MEL-5): 95.8% and 95.84%
Growth Percent (TK-10): 109.9% and 109.96%
Growth Percent (UACC-62): 95.3% and 95.33%
Delta (one dose mean graph) (full NCI 60 cell panel): 17.95%
Range (one dose mean graph) (full NCI 60 cell panel): 40.74%
Mean Growth Percent (full NCI 60 cell panel): 100.99%
melting point: 257 to 260 °C

Cc1c(C(=O)NCCC(=O)NO)sc2ncnc(Nc3ccc(NC(=O)Nc4cccc(C(F)(F)F)c4)cc3)c12 [Compound 11c, 1–(4-(6-((3-(hydroxyamino)-3-oxopropyl)carbamoyl)-5-methylthieno[2,3-d]pyrimidin-4-ylamino)phenyl)-3–(3-(trifluoromethyl)phenyl)urea]
inhibition at 10 µM (EGFR): 11%
% Inhibition Hela Nuclear Extracts (Hela nuclear extracts): 5%
Growth Percent (786-0): 115.6% and 115.64%
Growth Percent (CCRF-CEM): 98.8% and 98.82%
Growth Percent (EKVX): 90.7% and 90.76%
Growth Percent (HCT-15): 101.2% and 101.22%
Growth Percent (M14): 107.0% and 107.01%
Growth Percent (NCI/ADR-RES): 103.1% and 103.18%
Growth Percent (OVCAR-4): 105.0% and 105.02%
Growth Percent (SK-MEL-5): 97.1% and 97.12%
Growth Percent (TK-10): 140.4% and 140.42%
Growth Percent (UACC-62): 99.6% and 99.62%
Delta (one dose mean graph) (full NCI 60 cell panel): 23.75%
Range (one dose mean graph) (full NCI 60 cell panel): 61.62%
Mean Growth Percent (full NCI 60 cell panel): 102.55%
melting point: 281 °C

Cc1c(C(=O)NCCCC(=O)NO)sc2ncnc(Nc3ccc(NC(=O)Nc4ccccc4)cc3)c12 [Compound 12a, 1–(4-(6-((4-(hydroxyamino)-4-oxobutyl)carbamoyl)-5-methylthieno[2,3-d]pyrimidin-4-ylamino)phenyl)-3-phenylurea]
inhibition at 10 µM (EGFR): 11%
% Inhibition Hela Nuclear Extracts (Hela nuclear extracts): 2%
Growth Percent (786-0): 102.3% and 102.37%
Growth Percent (CCRF-CEM): 107.0% and 107.09%
Growth Percent (EKVX): 93.22%
Growth Percent (HCT-15): 100.2%
Growth Percent (M14): 99.0% and 99.09%
Growth Percent (NCI/ADR-RES): 103.7% and 103.79%
Growth Percent (OVCAR-4): 100.6%
Growth Percent (SK-MEL-5): 97.8% and 97.81%
Growth Percent (TK-10): 111.3% and 111.37%
Growth Percent (UACC-62): 99.1% and 99.19%
Delta (one dose mean graph) (full NCI 60 cell panel): 25.38%
Range (one dose mean graph) (full NCI 60 cell panel): 46.43%
Mean Growth Percent (full NCI 60 cell panel): 100.71%
melting point: 219 °C

COc1cccc(NC(=O)Nc2ccc(Nc3ncnc4sc(C(=O)NCCCC(=O)NO)c(C)c34)cc2)c1 [Compound 12b, 1–(4-(6-((4-(hydroxyamino)-4-oxobutyl)carbamoyl)-5-methylthieno[2,3-d]pyrimidin-4-ylamino)phenyl)-3–(3-methoxyphenyl)urea]
inhibition at 10 µM (EGFR): 5%
% Inhibition Hela Nuclear Extracts (Hela nuclear extracts): 3%
Growth Percent (786-0): 105.9%
Growth Percent (CCRF-CEM): 103.5% and 103.52%
Growth Percent (EKVX): 92.1% and 92.11%
Growth Percent (HCT-15): 99.6% and 99.68%
Growth Percent (M14): 104.0% and 104.04%
Growth Percent (NCI/ADR-RES): 101.6% and 101.63%
Growth Percent (OVCAR-4): 99.9% and 99.93%
Growth Percent (SK-MEL-5): 97.3% and 97.37%
Growth Percent (TK-10): 107.7% and 107.72%
Growth Percent (UACC-62): 95.3% and 95.39%
Delta (one dose mean graph) (full NCI 60 cell panel): 18.34%
Range (one dose mean graph) (full NCI 60 cell panel): 33.01%
Mean Growth Percent (full NCI 60 cell panel): 100.10%
melting point: 231 to 233 °C

Cc1c(C(=O)NCCCC(=O)NO)sc2ncnc(Nc3ccc(NC(=O)Nc4cccc(C(F)(F)F)c4)cc3)c12 [Compound 12c, 1–(4-(6-((4-(hydroxyamino)-4-oxobutyl)carbamoyl)-5-methylthieno[2,3-d]pyrimidin-4-ylamino)phenyl)-3–(3-(trifluoromethyl)phenyl)urea]
inhibition at 0.0001 µM (EGFR; 0.1 nM compound, 10 μM ATP, read-out: % Inhibition mean, EGFR (ErbB1)): 6%
inhibition at 0.001 µM (EGFR; 1 nM compound, 10 μM ATP, read-out: % Inhibition mean, EGFR (ErbB1)): 4%
inhibition at 0.01 µM (EGFR; 10 nM compound, 10 μM ATP, read-out: % Inhibition mean, EGFR (ErbB1)): 4%
inhibition at 0.1 µM (EGFR; 100 nM compound, 10 μM ATP, read-out: % Inhibition mean, EGFR (ErbB1)): 7%
inhibition at 1 µM (EGFR; 1000 nM compound, 10 μM ATP, read-out: % Inhibition mean, EGFR (ErbB1)): 34%
inhibition at 10 µM (EGFR): 66%
IC50 (EGFR; read-out: IC50 in enzyme assays EGFR): 1.14 µM
% Inhibition Hela Nuclear Extracts (Hela nuclear extracts): 7%
Growth Percent (786-0): 106.6% and 106.68%
Growth Percent (CCRF-CEM): 107.8% and 107.81%
Growth Percent (EKVX): 100.0% and 100.09%
Growth Percent (HCT-15): 99.9% and 99.96%
Growth Percent (M14): 107.2% and 107.23%
Growth Percent (NCI/ADR-RES): 99.2% and 99.22%
Growth Percent (OVCAR-4): 110.1% and 110.14%
Growth Percent (SK-MEL-5): 100.9% and 100.91%
Growth Percent (TK-10): 117.7% and 117.79%
Growth Percent (UACC-62): 98.5% and 98.59%
Delta (one dose mean graph) (full NCI 60 cell panel): 33.40%
Range (one dose mean graph) (full NCI 60 cell panel): 59.27%
Mean Growth Percent (full NCI 60 cell panel): 104.16%
melting point: 215 to 217 °C
